“And” between values parts separate entries of the source, which are not always exact repeats. Equal entries are not always repeated.
System: SYO-1 tumor spheroids, viability % test/control
Assay: Anticancer human tumor SYO-1 cell line growth inhibition;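 note: spheroids exposed to agents for 7 days before viability read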;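 for viability, T/C: 100% = DMSO vehicle control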
Conditions: spheroids with HUVEC and MSC; for viability, T/C: stronger effect = lower value
Summary of the method: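 Complex tumor spheroids combined malignant cells with endothelial cells and mesenchymal stem cells. DNA-damaging drugs and DNA repair inhibitors were tested alone and in combination, at half-log dilutions down from clinical Cmax (top 10 microM if Cmax unknown), 0.25% DMSO final.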

[1] = curve of first compound, second compound 30 pM
[2] = curve of first compound, second compound 94.9 pM
[3] = curve of first compound, second compound 0.0003 µM
[4] = curve of first compound, second compound 0.000949 µM
[5] = curve of first compound, second compound 0.003 µM
[6] = second compound 30 pM, first compound 0.0316 µM
[7] = second compound 30 pM, first compound 0.1 µM
[8] = second compound 30 pM, first compound 0.316 µM
[9] = second compound 30 pM, first compound 1 µM
[10] = second compound 30 pM, first compound 3.16 µM
[11] = second compound 30 pM, first compound 10 µM
[12] = second compound 94.9 pM, first compound 0.0316 µM
[13] = second compound 94.9 pM, first compound 0.1 µM
[14] = second compound 94.9 pM, first compound 0.316 µM
[15] = second compound 94.9 pM, first compound 1 µM
[16] = second compound 94.9 pM, first compound 3.16 µM
[17] = second compound 94.9 pM, first compound 10 µM
[18] = second compound 0.0003 µM, first compound 0.0316 µM
[19] = second compound 0.0003 µM, first compound 0.1 µM
[20] = second compound 0.0003 µM, first compound 0.316 µM
[21] = second compound 0.0003 µM, first compound 1 µM
[22] = second compound 0.0003 µM, first compound 3.16 µM
[23] = second compound 0.0003 µM, first compound 10 µM
[24] = second compound 0.000949 µM, first compound 0.0316 µM
[25] = second compound 0.000949 µM, first compound 0.1 µM
[26] = second compound 0.000949 µM, first compound 0.316 µM
[27] = second compound 0.000949 µM, first compound 1 µM
[28] = second compound 0.000949 µM, first compound 3.16 µM
[29] = second compound 0.000949 µM, first compound 10 µM
[30] = second compound 0.003 µM, first compound 0.0316 µM
[31] = second compound 0.003 µM, first compound 0.1 µM
[32] = second compound 0.003 µM, first compound 0.316 µM
[33] = second compound 0.003 µM, first compound 1 µM
[34] = second compound 0.003 µM, first compound 3.16 µM
[35] = second compound 0.003 µM, first compound 10 µM

SMILES | IC50 [1] | IC50 [2] | IC50 [3] | IC50 [4] | IC50 [5] | viability, T/C [6] | viability, T/C [7] | viability, T/C [8] | viability, T/C [9] | viability, T/C [10] | viability, T/C [11] | viability, T/C [12] | viability, T/C [13] | viability, T/C [14] | viability, T/C [15] | viability, T/C [16] | viability, T/C [17] | viability, T/C [18] | viability, T/C [19] | viability, T/C [20] | other results
Cc1cc(C)c(CNC(=O)c2cc(-c3ccc(CN4CCOCC4)cc3)cc3c2cnn3C2CCCC2)c(=O)[nH]1 + COc1cc2c(cc1O)CCNC21CSC2c3c(OC(C)=O)c(C)c4c(c3C(COC1=O)N1C(O)C3Cc5cc(C)c(OC)c(O)c5C(C21)N3C)OCO4 | > 10 µM | 7.98 µM | < 0.0316 µM | < 0.0316 µM | < 0.0316 µM | 103% | 97.2% | 100% | 103% | 107% | 96.3% | 102% | 96.3% | 99.2% | 99.8% | 84.5% | 41.1% | 18.4% | 14.3% | 13.3% | viability, T/C [21]: 11%; viability, T/C [22]: 12.2%; viability, T/C [23]: 3.97%; viability, T/C [24]: 0.91%; viability, T/C [25]: 0.86%; viability, T/C [26]: 1.11%; viability, T/C [27]: 0.97%; viability, T/C [28]: 0.9%; viability, T/C [29]: 1.08%; viability, T/C [30]: 0.13%; viability, T/C [31]: 0.13%; viability, T/C [32]: 0.13%; viability, T/C [33]: 0.15%; viability, T/C [34]: 0.14%; viability, T/C [35]: 0.2%
Cn1nnc2c(C(N)=O)ncn2c1=O | – | – | – | – | – | – | – | – | – | – | – | – | – | – | – | – | – | – | – | – | viability, T/C (compound 1 µM): 102% [middle of 9 runs]; viability, T/C (compound 3.16 µM): 98.2% [middle of 10 runs]; viability, T/C (compound 10 µM): 100% [middle of 10 runs]; viability, T/C (compound 31.6 µM): 106% [middle of 10 runs]; IC50 (compound alone, run of 12/02/2019): > 100 µM and 88.3 µM
COc1cc2c(cc1O)CCNC21CSC2c3c(OC(C)=O)c(C)c4c(c3C(COC1=O)N1C(O)C3Cc5cc(C)c(OC)c(O)c5C(C21)N3C)OCO4 (stereo not given) | – | – | – | – | – | – | – | – | – | – | – | – | – | – | – | – | – | – | – | – | viability, T/C (compound 30 pM): 97.6% [middle of 10 runs]; viability, T/C (compound 0.0003 µM): 14.7% [middle of 10 runs]; viability, T/C (compound 0.000949 µM): 1.05% [middle of 10 runs]; viability, T/C (compound 0.003 µM): 0.12% [middle of 7 runs]; IC50 (compound alone, run of 12/12/2019): 0.179 nM [middle of 9 runs]
COc1ccc([C@@H](O)c2cc(-c3ncnc4cc(N5CCOCC5)ccc34)c(F)cc2Cl)nn1 + COc1cc2c(cc1O)CCNC21CSC2c3c(OC(C)=O)c(C)c4c(c3C(COC1=O)N1C(O)C3Cc5cc(C)c(OC)c(O)c5C(C21)N3C)OCO4 | 3.17 µM | 0.772 µM | < 0.0316 µM | < 0.0316 µM | < 0.0316 µM | 104% | 103% | 105% | 102% | 50.1% | 2.83% | 97.7% | 103% | 94.9% | 37% | 5.43% | 7.51% | 12.2% | 9.57% | 3.06% | viability, T/C [21]: 1.34%; viability, T/C [22]: 0.26%; viability, T/C [23]: 0.17%; viability, T/C [24]: 0.88%; viability, T/C [25]: 0.86%; viability, T/C [26]: 0.54%; viability, T/C [27]: 0.23%; viability, T/C [28]: 0.03%; viability, T/C [29]: 0.15%; viability, T/C [30]: 0.12%; viability, T/C [31]: 0.12%; viability, T/C [32]: 0.1%; viability, T/C [33]: 0.24%; viability, T/C [34]: 0.38%; viability, T/C [35]: 1.5%

— PubChem BioAssay AID1845219 (Molecular Pharmacology Branch, DTP, NCI, 2023)
